For one series, the system named is SOCS-1 gene expression. Kind of series: Semi-quantitative RT-PCR of SOCS-1 expression in MM cell lines. Format: cell-based, human. Particulars: 1 μM for 96 hr. On the procedure: (§1) For gene expression studies, U266 and XG1 cells were incubated in complete culture medium with a final concentration of 1.0 μM 5-azacytidine (Sigma). After 4 days, drug-treated and untreated cells were harvested and subjected to RNA extraction. In order to assess the sensitivity to AG490, cell lines K562, U266 and XG1 were incubated with or without a final concentration of 50 μM AG490 for 4 days prior to analysis. For STAT3 phosphorylation analysis, cell lines U266 and XG1 were initially starved for 16 hr in culture medium supplemented with only 1% FCS and no cytokine. Cells were then washed in cold PBS and resuspended in their appropriate complete medium with or without 50 μM AG490 and samples were harvested for protein analysis after 1 hr and 24 hr.
Total RNA was isolated using a commercially available kit (Qiagen) according to the manufacturer's instructions. Approximately 3 μg RNA per sample were reverse transcribed with SuperScript™ reverse transcriptase (Invitrogen). For PCR, 1 μl of the cDNA preparation was amplified using the following SOCS-1 primers: […]
Reactions were hot-started at 95° C. for 5 min and held at 80° C. before addition of 1.25 U of Taq polymerase (Invitrogen Corp.). […]

Series [1] concerns patients with AML and myelodysplastic syndrome. As to conditions: cited from earlier work.
For series [2], the system named is STAT3. Briefly: Western blot analysis of STAT3 tyrosine phosphorylation in HCC cell lines treated with AG490. It counts as cell-based, human. Particulars: 25 μM AG490 for 3 hr or 24 hr. How it is done:
Cells at approximately 70% confluence were harvested and lysed on ice in a buffer containing 20 mM Tris (pH 8.0), 1% NONIDET P-40 detergent, 0.1% SDS, 150 mM NaCl, 50 mM NaF, 1 mM Na3VO4, 10 μg/ml leupeptin, 10 μg/ml aprotinin, 1 μg/ml pepstatin, and 1 mM phenylmethylsulfonyl fluoride. Following incubation for 30 min on ice, the lysates were cleared of debris by centrifugation at 15,000×g for 30 min. Eight hundred μg of protein lysates were incubated with 5 μg anti-JAK2 antibody (Upstate Biotechnology; Waltham Mass.) for 1 hr on ice. Thirty μl protein A+G (Oncogene Research Products; Boston Mass.) was added to the lysates and incubated for 1 hr at 4° C. with rotation.
Immune complexes were recovered by centrifugation, washed 5 times with the lysis buffer, then boiled for 5 min in SDS-PAGE sample buffer. The samples were resolved by SDS-PAGE, and electroblotted onto a nitrocellulose membrane. The blot was blocked with 5% skim milk in PBS for 1 hr at room temperature (RT), then incubated with 1 μg/ml of anti-phosphotyrosine antibody (4G10; Upstate biotechnology) over night at 4° C.
After several washes, a 1:5000 dilution of anti-mouse horseradish peroxidase-conjugated secondary antibody (Amersham Pharmacia Biotech) was added and incubated for 1 hr at RT. After several washes, the immunoreactive bands were visualized by an enhanced chemiluminescence substrate (Amersham Pharmacia Biotech) and exposed to HYPERFILM film (Amersham Pharmacia Biotech). The blot was stripped with a buffer composed of 62.5 mM Tris (pH 6.8), 2% SDS and 100 mM θ-mercaptoethanol at 50° C. for 30 min, washed, blocked with 5% milk in PBS, then re-probed with the anti-JAK2 antibody (Upstate Biotechnology).
To analyze inhibition of STAT3 by AG490, cells were treated with 25 μM AG490 for 3 hr or 24 hr. Eighty μg total protein samples from drug treated and untreated cells were separated by SDS-PAGE, and analyzed by western blot analysis. Anti-phospho-STAT3 antibody (New England Biolabs) was used to detect tyrosine phosphorylation of STAT3 according to the conditions recommended by the manufacturer. […]
On the technique in general: Immunoblotting shows a protein as a band on a membrane.

Series [3] has as its system HCC cells exhibiting methylation silenced SOCS-1 gene expression. Briefly: Colony formation assay with AG490. Format: cell-based, human. Particulars: 5 μM AG490 for 3 weeks. How it is done: For AG490 treatment, 1×10^4 cells were plated in 100 mm tissue culture dishes, and grown in complete medium in the absence or presence of 5 μM AG490 for 3 weeks. In some experiments, cells were treated with 25 μM AG490 for 3 hr or 24 hr.

A further series deals with normal liver cells. Briefly: Effect of AG490 on normal liver cells. It counts as cell-based.
For another series, the system named is K562 cells. Briefly: Flow cytometric analysis of apoptosis (annexin V binding, PI counterstaining). It counts as cell-based, human. As to conditions: 50 μM AG490, 96 hr; no SOCS-1 methylation. On the procedure:
as §1
(§2) Apoptosis was assessed by annexin V binding and counterstaining with propidium iodide (PI) using a commercially available kit (Pharmingen) according to the manufacturer's instructions. Fluorescence analysis was performed on a BD LSR flow cytometer (Becton Dickinson).
For orientation: In flow cytometry, cells or beads pass a laser one at a time.

In the next series the test system is U266 cells. The series is described as above. It counts as cell-based, human. As to conditions: 50 μM AG490, 96 hr; SOCS-1 hypermethylated. On the procedure:
as §1, §2

The test system of another series is XG1 cells. The description is as above. Format: cell-based, human. Particulars: 50 μM AG490, 96 hr; SOCS-1 hypermethylated. How it is done:
as §1, §2

Series [4] deals with STAT3. Kind of series: Western blot analysis of STAT3 phosphorylation in MM cell lines. Format: cell-based, human. Particulars: 50 μM AG490, 1 hr and 24 hr. On the procedure: as §1
Cell lysis and western blot analysis for STAT3 phosphorylation were performed as described in Example 1 (see, also, Yoshikawa et al., supra, 2001).

The test system of a further series is HL60. Briefly: Flow cytometric analysis of apoptosis in AML cell line. As to conditions: 50 μM AG490, 96 hr; SOCS-1 not methylated. Format: cell-based, human. How it is done: (§3) HL60 cells were obtained from the American Type Culture Collection and KG1a cells from the German Collection of Microorganisms and Cell Cultures. Both cell lines were routinely cultured in IMDM (Invitrogen Corp.) with 20% FCS (Gemini Bio-Products). In order to assess the sensitivity to AG490, HL60 and KG1a cells were incubated with or without a final concentration of 50 μM AG490 (Sigma) for 96 hr prior to analysis.
(§4) The percentage of apoptotic cells was determined by annexin V-binding and counterstaining with propidium iodide (PI), and fluorescence analysis was performed as described in Example 2.

A further series has as its system KG1a. The description is as above. It counts as cell-based, human. Particulars: 50 μM AG490, 96 hr; SOCS-1 CpG island methylated. On the procedure: as §3, §4
A further series deals with STAT1. Briefly: Western blot analysis of STAT tyrosine phosphorylation in SOCS-1 methylated leukemia cells. It counts as cell-based, human. Particulars: cell line with SOCS-1 methylation, following treatment with AG490. How it is done:
(§5) Western blot analysis was performed as described in Example 1. Blots were stained using anti-phospho-STAT1, anti-phospho-STAT3 or anti-phospho-STAT5 antibody (New England Biolabs) to detect tyrosine phosphorylation of STAT protein. After removing the antibody, the blot was analyzed using anti-STAT1, anti-STAT3 or anti-STAT5 antibody, respectively (BD Transduction Laboratories).

For series [5], the system named is STAT3. The series is described as above. It counts as cell-based, human. As to conditions: cell line with SOCS-1 methylation, following treatment with AG490. On the procedure:
as §5

A further series relates to STAT5. The series is described as above. It counts as cell-based, human. Particulars: cell line with SOCS-1 methylation, following treatment with AG490. On the procedure:
as §5

The subject of series [6] is normal haematopoietic progenitor cells. Particulars: at concentrations similar to those used in the present studies; cited from earlier work.
The test system of series [7] is B cell leukemia cells, in which JAK2 was constitutively activated. Particulars: cited from earlier work.
Series [8] relates to STAT3. Particulars: MM cell line XG2; cited from earlier work.
For the next series, the system named is myeloma cells. Particulars: cited from earlier work.
In another series the test system is leukemic Sezary cells. Particulars: cited from earlier work.
The test system of another series is ALL. Particulars: cited from earlier work.

Molecules are shown by their SMILES. Entries after “also recorded” stand apart in the source; their conditions may differ. Where two headings read alike, the source gives them in different places.

As for `Nc1ncn([C@H]2C[C@H](O)[C@@H](CO)O2)c(=O)n1` [5-aza-2′-deoxycytidine], the SOCS-1 gene expression entry in the series with SOCS-1 gene expression (U266 cells) and in the series on SOCS-1 gene expression (XG1 cells) was “reactivation of SOCS-1 gene expression” in each case. Also, the clinical efficacy result in [1] is recorded as “clinically effective”.

As for `N#C/C(=C/c1ccc(O)c(O)c1)C(=O)NCc1ccccc1` [AG490], the STAT3 phosphorylation entry was “time dependent reduction in STAT3 phosphorylation” with STAT3 [2] (HuH-1 cells (SOCS-1 inactivated, JAK2 activated)); “time dependent reduction in STAT3 phosphorylation” with STAT3 [2] (SNU-387 cells (SOCS-1 inactivated, JAK2 activated)); “but not in the SOCS-1 expressing SNU-182 cells” with STAT3 [2] (SOCS-1 expressing SNU-182 cells); “inhibited STAT3 phosphorylation” in the series on STAT3 [4] (U266 cells); “only minor effects” in the series on STAT3 [4] (XG1 cells); “inhibition of STAT3 phosphorylation” in the series with STAT3 [8]. Also, the “growth suppression (number of colonies)” value in series [3] is “effectively suppressed the growth”. Also, the “effect on normal liver cells” value in the series on normal liver cells is recorded as “no effect”. Also, the apoptosis induction entry in the series with K562 cells is reported as “only a small effect”; in the series with U266 cells, “induced apoptosis”; with XG1 cells, “induced apoptosis”; in the series on HL60, “no effect; also recorded: only weak induction of apoptosis”; in the series with KG1a, “induced apoptosis”; in the series on myeloma cells it was “induces apoptosis”. For the same molecule, the apoptosis induction result in the series on leukemic Sezary cells is reported as “induces apoptosis”. Moreover, in the series with STAT1, the “tyrosine phosphorylation of STAT1” value was “decreased”. The “tyrosine phosphorylation of STAT3” value in the series on STAT3 [5] is listed as “decreased”. Besides, the “tyrosine phosphorylation of STAT5” value with STAT5 is given as “no change”. Also, the “growth of normal haematopoietic progenitor cells” value in series [6] is given as “does not suppress the growth”. For the same molecule, the “growth of B cell leukemia cells” value in series [7] was “suppress growth”. Moreover, the “effectiveness in the treatment of ALL” value in the series with ALL is listed as “effectiveness”.

(Values after US7749709B2, “SOCS-1 gene methylation in cancer” (The Johns Hopkins University School of Medicine, priority 2001, dated 2010).)
